Results from patent US11793849B2, “Method of Chinese herbal medicine extract used for treating multiple diseases caused by drug resistant bacteria infection” (priority 2016, dated 2023).

Test system: MDRAB
Assay: Checkerboard assay (combined-use MIC, FIC)
Format: cell-based, Acinetobacter baumannii
Conditions: for FIC, all strains / MIC50 of the antibiotic after combined use / MIC90 of the antibiotic after combined use / reduction of the antibiotic's MIC50 vs single use / reduction of the antibiotic's MIC90 vs single use / share of strains with FIC ≤ 0.5: 20 MDRABs
In short: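 Checkerboard combinations of S20b and antibiotic run per NCCLS method against ESBL E. coli, MDR A. baumannii and MDR P. aeruginosa.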

[1] = antibiotic with 60% ethanol extract
[2] = antibiotic with 95% ethanol extract
[3] = antibiotic with EA (10% ethanol extract)
[4] = antibiotic with EA (water extract)

Substance: Polymycin B [POLB]
- FIC, all strains [1]: ≤ 2
- MIC50 of the antibiotic after combined use [1]: 0.5 µg/mL
- MIC90 of the antibiotic after combined use [1]: 4 µg/mL
- reduction of the antibiotic's MIC50 vs single use [1]: 87.5%
- reduction of the antibiotic's MIC90 vs single use [1]: 75%
- share of strains with FIC ≤ 0.5 [1]: 15%
- FIC, all strains [2]: ≤ 2
- MIC50 of the antibiotic after combined use [2]: 1 µg/mL
- MIC90 of the antibiotic after combined use [2]: 4 µg/mL
- reduction of the antibiotic's MIC50 vs single use [2]: 75%
- reduction of the antibiotic's MIC90 vs single use [2]: 75%
- share of strains with FIC ≤ 0.5 [2]: 20%
- FIC, all strains [3]: ≤ 2
- MIC50 of the antibiotic after combined use [3]: 1 µg/mL
- MIC90 of the antibiotic after combined use [3]: 4 µg/mL
- reduction of the antibiotic's MIC50 vs single use [3]: 75%
- reduction of the antibiotic's MIC90 vs single use [3]: 75%
- share of strains with FIC ≤ 0.5 [3]: 15%
- FIC, all strains [4]: ≤ 2
- MIC50 of the antibiotic after combined use [4]: 1 µg/mL
- MIC90 of the antibiotic after combined use [4]: 4 µg/mL
- reduction of the antibiotic's MIC50 vs single use [4]: 75%
- reduction of the antibiotic's MIC90 vs single use [4]: 75%
- share of strains with FIC ≤ 0.5 [4]: 25%
- combined-use MIC (strain A1, EA (10% ethanol extract) with POLB): 4 µg/mL
- combined-use MIC (strain A1, EA (60% ethanol extract) + POLB combined): 4 µg/mL
- combined-use MIC (strain A1, EA (95% ethanol extract) + POLB combined): 4 µg/mL
- combined-use MIC (strain A1, EA (water extract) with POLB): 4 µg/mL
- single-use MIC (strain A1, EA=60% ethanol extract): 8 µg/mL
- single-use MIC (strain A1, EA=95% ethanol extract): 8 µg/mL
- combined-use MIC (strain A2, EA (10% ethanol extract) with POLB): 1 µg/mL
- combined-use MIC (strain A2, EA (60% ethanol extract) + POLB combined): 0.5 µg/mL
- combined-use MIC (strain A2, EA (95% ethanol extract) + POLB combined): 0.5 µg/mL
- combined-use MIC (strain A2, EA (water extract) with POLB): 1 µg/mL
- single-use MIC (strain A2, EA=60% ethanol extract): 2 µg/mL
- single-use MIC (strain A2, EA=95% ethanol extract): 2 µg/mL
- combined-use MIC (strain A3, EA (10% ethanol extract) with POLB): 1 µg/mL
- combined-use MIC (strain A3, EA (60% ethanol extract) + POLB combined): 1 µg/mL
- combined-use MIC (strain A3, EA (95% ethanol extract) + POLB combined): 1 µg/mL
- combined-use MIC (strain A3, EA (water extract) with POLB): 0.5 µg/mL
- single-use MIC (strain A3, EA=60% ethanol extract): 2 µg/mL
- single-use MIC (strain A3, EA=95% ethanol extract): 2 µg/mL
- combined-use MIC (strain A4, EA (10% ethanol extract) with POLB): 1 µg/mL
- combined-use MIC (strain A4, EA (60% ethanol extract) + POLB combined): 1 µg/mL
- combined-use MIC (strain A4, EA (95% ethanol extract) + POLB combined): 1 µg/mL
- combined-use MIC (strain A4, EA (water extract) with POLB): 0.5 µg/mL
- single-use MIC (strain A4, EA=60% ethanol extract): 2 µg/mL
- single-use MIC (strain A4, EA=95% ethanol extract): 2 µg/mL
- single-use MIC (strain A5 (printed AS in tables A43, A45), EA=95% ethanol extract): 4 µg/mL
- combined-use MIC (strain A5, EA (10% ethanol extract) with POLB): 1 µg/mL
- combined-use MIC (strain A5, EA (60% ethanol extract) + POLB combined): 2 µg/mL
- combined-use MIC (strain A5, EA (water extract) with POLB): 0.5 µg/mL
- single-use MIC (strain A5, EA=60% ethanol extract): 4 µg/mL
- combined-use MIC (strain A6, EA (10% ethanol extract) with POLB): 1 µg/mL
- combined-use MIC (strain A6, EA (60% ethanol extract) + POLB combined): 2 µg/mL
- combined-use MIC (strain A6, EA (95% ethanol extract) + POLB combined): 2 µg/mL
- combined-use MIC (strain A6, EA (water extract) with POLB): 2 µg/mL
- single-use MIC (strain A6, EA=60% ethanol extract): 8 µg/mL
- single-use MIC (strain A6, EA=95% ethanol extract): 8 µg/mL
- combined-use MIC (strain A7, EA (10% ethanol extract) with POLB): 1 µg/mL
- combined-use MIC (strain A7, EA (60% ethanol extract) + POLB combined): 2 µg/mL
- combined-use MIC (strain A7, EA (95% ethanol extract) + POLB combined): 2 µg/mL
- combined-use MIC (strain A7, EA (water extract) with POLB): 1 µg/mL
- single-use MIC (strain A7, EA=60% ethanol extract): 4 µg/mL
- single-use MIC (strain A7, EA=95% ethanol extract): 4 µg/mL
- combined-use MIC (strain A8, EA (10% ethanol extract) with POLB): 0.0625 µg/mL
- combined-use MIC (strain A8, EA (60% ethanol extract) + POLB combined): 0.0625 µg/mL
- combined-use MIC (strain A8, EA (95% ethanol extract) + POLB combined): 1 µg/mL
- combined-use MIC (strain A8, EA (water extract) with POLB): 0.0625 µg/mL
- single-use MIC (strain A8, EA=60% ethanol extract): 8 µg/mL
- single-use MIC (strain A8, EA=95% ethanol extract): 8 µg/mL
- combined-use MIC (strain A9, EA (10% ethanol extract) with POLB): 0.0625 µg/mL
- combined-use MIC (strain A9, EA (60% ethanol extract) + POLB combined): 0.0625 µg/mL
- combined-use MIC (strain A9, EA (95% ethanol extract) + POLB combined): 0.25 µg/mL
- combined-use MIC (strain A9, EA (water extract) with POLB): 0.0625 µg/mL
- single-use MIC (strain A9, EA=60% ethanol extract): 1 µg/mL
- single-use MIC (strain A9, EA=95% ethanol extract): 1 µg/mL
- combined-use MIC (strain A10, EA (10% ethanol extract) with POLB): 4 µg/mL
- combined-use MIC (strain A10, EA (60% ethanol extract) + POLB combined): 8 µg/mL
- combined-use MIC (strain A10, EA (95% ethanol extract) + POLB combined): 8 µg/mL
- combined-use MIC (strain A10, EA (water extract) with POLB): 8 µg/mL
- single-use MIC (strain A10, EA=60% ethanol extract): 32 µg/mL
- single-use MIC (strain A10, EA=95% ethanol extract): 32 µg/mL
- combined-use MIC (strain A11, EA (10% ethanol extract) with POLB): 8 µg/mL
- combined-use MIC (strain A11, EA (60% ethanol extract) + POLB combined): 4 µg/mL
- combined-use MIC (strain A11, EA (95% ethanol extract) + POLB combined): 4 µg/mL
- combined-use MIC (strain A11, EA (water extract) with POLB): 4 µg/mL
- single-use MIC (strain A11, EA=60% ethanol extract): 16 µg/mL
- single-use MIC (strain A11, EA=95% ethanol extract): 16 µg/mL
- combined-use MIC (strain A12, EA (10% ethanol extract) with POLB): 1 µg/mL
- combined-use MIC (strain A12, EA (60% ethanol extract) + POLB combined): 0.5 µg/mL
- combined-use MIC (strain A12, EA (95% ethanol extract) + POLB combined): 1 µg/mL
- combined-use MIC (strain A12, EA (water extract) with POLB): 0.0625 µg/mL
- single-use MIC (strain A12, EA=60% ethanol extract): 2 µg/mL
- single-use MIC (strain A12, EA=95% ethanol extract): 2 µg/mL
- combined-use MIC (strain A13, EA (10% ethanol extract) with POLB): 1 µg/mL
- combined-use MIC (strain A13, EA (60% ethanol extract) + POLB combined): 1 µg/mL
- combined-use MIC (strain A13, EA (95% ethanol extract) + POLB combined): 1 µg/mL
- combined-use MIC (strain A13, EA (water extract) with POLB): 1 µg/mL
- single-use MIC (strain A13, EA=60% ethanol extract): 2 µg/mL
- single-use MIC (strain A13, EA=95% ethanol extract): 2 µg/mL
- combined-use MIC (strain A14, EA (10% ethanol extract) with POLB): 0.0625 µg/mL
- combined-use MIC (strain A14, EA (60% ethanol extract) + POLB combined): 0.0625 µg/mL
- combined-use MIC (strain A14, EA (95% ethanol extract) + POLB combined): 0.25 µg/mL
- combined-use MIC (strain A14, EA (water extract) with POLB): 0.0625 µg/mL
- single-use MIC (strain A14, EA=60% ethanol extract): 0.5 µg/mL
- single-use MIC (strain A14, EA=95% ethanol extract): 0.5 µg/mL
- combined-use MIC (strain A15, EA (10% ethanol extract) with POLB): 1 µg/mL
- combined-use MIC (strain A15, EA (60% ethanol extract) + POLB combined): 0.0625 µg/mL
- combined-use MIC (strain A15, EA (95% ethanol extract) + POLB combined): 0.0625 µg/mL
- combined-use MIC (strain A15, EA (water extract) with POLB): 0.0625 µg/mL
- single-use MIC (strain A15, EA=60% ethanol extract): 2 µg/mL
- single-use MIC (strain A15, EA=95% ethanol extract): 2 µg/mL
- combined-use MIC (strain A16, EA (10% ethanol extract) with POLB): 1 µg/mL
- combined-use MIC (strain A16, EA (60% ethanol extract) + POLB combined): 0.0625 µg/mL
- combined-use MIC (strain A16, EA (95% ethanol extract) + POLB combined): 0.0625 µg/mL
- combined-use MIC (strain A16, EA (water extract) with POLB): 0.0625 µg/mL
- single-use MIC (strain A16, EA=60% ethanol extract): 4 µg/mL
- single-use MIC (strain A16, EA=95% ethanol extract): 4 µg/mL
- combined-use MIC (strain A17, EA (10% ethanol extract) with POLB): 16 µg/mL
- combined-use MIC (strain A17, EA (60% ethanol extract) + POLB combined): 2 µg/mL
- combined-use MIC (strain A17, EA (95% ethanol extract) + POLB combined): 4 µg/mL
- combined-use MIC (strain A17, EA (water extract) with POLB): 2 µg/mL
- single-use MIC (strain A17, EA=60% ethanol extract): 64 µg/mL
- single-use MIC (strain A17, EA=95% ethanol extract): 64 µg/mL
- combined-use MIC (strain A18, EA (10% ethanol extract) with POLB): 1 µg/mL
- combined-use MIC (strain A18, EA (60% ethanol extract) + POLB combined): 0.5 µg/mL
- combined-use MIC (strain A18, EA (95% ethanol extract) + POLB combined): 1 µg/mL
- combined-use MIC (strain A18, EA (water extract) with POLB): 2 µg/mL
- single-use MIC (strain A18, EA=60% ethanol extract): 4 µg/mL
- single-use MIC (strain A18, EA=95% ethanol extract): 4 µg/mL
- combined-use MIC (strain A19, EA (10% ethanol extract) with POLB): 1 µg/mL
- combined-use MIC (strain A19, EA (60% ethanol extract) + POLB combined): 0.5 µg/mL
- combined-use MIC (strain A19, EA (95% ethanol extract) + POLB combined): 1 µg/mL
- combined-use MIC (strain A19, EA (water extract) with POLB): 2 µg/mL
- single-use MIC (strain A19, EA=60% ethanol extract): 4 µg/mL
- single-use MIC (strain A19, EA=95% ethanol extract): 4 µg/mL
- combined-use MIC (strain A20, EA (10% ethanol extract) with POLB): 1 µg/mL
- combined-use MIC (strain A20, EA (60% ethanol extract) + POLB combined): 0.5 µg/mL
- combined-use MIC (strain A20, EA (95% ethanol extract) + POLB combined): 0.5 µg/mL
- combined-use MIC (strain A20, EA (water extract) with POLB): 1 µg/mL
- single-use MIC (strain A20, EA=60% ethanol extract): 2 µg/mL
- single-use MIC (strain A20, EA=95% ethanol extract): 2 µg/mL
- combined-use MIC (strain AS, EA (95% ethanol extract) + POLB combined): 2 µg/mL
